Laboratory results taken from patent US10993439B2, “Mesoionic imidazopyridines as insecticides” (BAYER AKTIENGESELLSCHAFT, priority 2017, dated 2021).

Assays:
[1] = log P by HPLC on reversed-phase column (EEC directive 79/831 Annex V.A8); format: physicochemical; details: reversed-phase column (C18), 43° C., calibration with unbranched alkan-2-ones
Protocol: The log P values reported in the tables and preparation examples above were determined in accordance with EEC directive 79/831 Annex V.A8 by HPLC (High Performance Liquid Chromatography) using a reversed-phase column (C18). Temperature 43° C. The calibration is effected with unbranched alkan-2-ones (having 3 to 16 carbon atoms), for which the log P values are known.

[2] = tested on: Myzus persicae; assay: Myzus persicae oral test; format: in vivo; details: application rate 4 ppm; mixed population of green peach aphid; after 5 days
Protocol: Solvent: 100 parts by weight of acetone
The plates are then sealed with parafilm which can be pierced by a mixed population of the green peach aphid (Myzus persicae) located in a second microtiter plate in order to take up the solution.
(§1) After 5 days, the efficacy in % is determined. 100% means that all the aphids have been killed; 0% means that none of the aphids have been killed.

[3] = tested on: Ctenocephalides felis; assay: Ctenocephalides felis in vitro contact test with adult cat fleas; format: in vivo; details: application rate 5 μg/cm^2 (=500 g of ai/ha), after 48 h
Protocol: For the coating of the test tubes, 9 mg of active compound are first dissolved in 1 ml of acetone p.a. and then diluted to the desired concentration with acetone p.a. 250 μl of the solution are distributed homogeneously on the inner walls and the base of a 25 ml test tube by turning and rocking on an orbital shaker (rocking rotation at 30 rpm for 2 h). With 900 ppm active compound solution and internal surface 44.7 cm^2, given homogeneous distribution, an area-based dose of 5 μg/cm^2 is achieved.
After the solvent has evaporated off, the tubes are populated with 5-10 adult cat fleas (Ctenocephalides felis), sealed with a perforated plastic lid and incubated in a horizontal position at room temperature and ambient humidity. After 48 h, efficacy is determined. To this end, the tubes are stood upright and the fleas are knocked to the base of the tube. Fleas which remain motionless at the base or are moved in an uncoordinated manner are considered to be dead or moribund.
100% efficacy means that all the fleas were dead or moribund. 0% efficacy means that no fleas were harmed.

[4] = tested on: Myzus persicae; assay: Myzus persicae spray test; format: in vivo; details: application rate 500 g/ha; Chinese cabbage leaf discs, all stages of green peach aphid; after 5 days
Protocol: (§2) Solvents: 78 parts by weight of acetone • • 1.5 parts by weight of dimethylformamide
(§3) Emulsifier: alkylaryl polyglycol ether
(§4) To produce a suitable preparation of active compound, 1 part by weight of active compound is dissolved using the stated parts by weight of solvent and made up with water containing an emulsifier concentration of 1000 ppm until the desired concentration is attained. To produce further test concentrations, the preparation is diluted with emulsifier-containing water.
Discs of Chinese cabbage leaves (Brassica pekinensis) infested by all stages of the green peach aphid (Myzus persicae) are sprayed with an active compound preparation of the desired concentration.
as §1

[5] = tested on: Diabrotica balteata; assay: Diabrotica balteata spray test; format: in vivo; details: application rate 160 μg/well; beetle larvae on germinated wheat grains; after 7 days
Protocol: as §2, §3, §4
Preswollen wheat grains (Triticum aestivum) are incubated in a multiwell plate filled with agar and a little water for one day (5 seed grains per well). The germinated wheat grains are sprayed with an active compound preparation of the desired concentration. Subsequently, each well is infested with 10-20 Diabrotica balteata beetle larvae.
After 7 days, the efficacy in % is determined. 100% means that all wheat plants have grown as in the untreated non-infested control; 0% means that no wheat plant has grown.

Row | SMILES | chromatographic logP [1] | further results
1 | COC(=O)c1c([O-])n(CCC#N)c2cccc[n+]12 [1-(2-cyanoethyl)-3-methoxycarbonylimidazo[1,2-a]pyridin-4-ium-2-olate] | 0.39 | 
2 | COC(=O)c1c([O-])n(CC(F)(F)F)c2cccc[n+]12 [3-methoxycarbonyl-1-(2,2,2-trifluoroethyl)imidazo[1,2-a]pyridin-4-ium-2-olate] | 1.01 | 
3 | N#CCCn1c([O-])c(C(=O)c2cccc(C(F)(F)F)c2)[n+]2ccccc12 [I-004, 1-(2-Cyanoethyl)-3-[3-(trifluoromethyl)benzoyl]imidazo[1,2-a]pyridin-4-ium-2-olate] | 1.35 | efficacy (aphids killed) [2]: 100%
4 | N#CCCn1c([O-])c(C(=O)Nc2c(Cl)cccc2Cl)[n+]2ccccc12 [I-016, 1-(2-Cyanoethyl)-3-[(2,6-dichlorophenyl)carbamoyl]imidazo[1,2-a]pyridin-4-ium-2-olate] | 1.81 | efficacy (fleas dead or moribund) [3]: 100%; efficacy (aphids killed) [4]: 100%
5 | Cc1ccc[n+]2c(C(=O)C(F)(F)F)c([O-])n(CCC#N)c12 [I-027, 1-(2-Cyanoethyl)-8-methyl-3-(2,2,2-trifluoroacetyl)imidazo[1,2-a]pyridin-4-ium-2-olate] | 1.35 | 
6 | O=C(c1c([O-])n(CC(F)(F)F)c2cccc[n+]12)C(F)(F)F [I-047, 3-(2,2,2-trifluoroacetyl)-1-(2,2,2-trifluoroethyl)imidazo[1,2-a]pyridin-4-ium-2-olate] | 1.79 | efficacy (fleas dead or moribund) [3]: 80%; efficacy (wheat plants grown as in untreated non-infested control) [5]: 100%
7 | COC(=O)C(=O)c1c([O-])n(CC(F)(F)F)c2cccc[n+]12 [I-051, 3-(2-Methoxy-2-oxoacetyl)-1-(2,2,2-trifluoroethyl)imidazo[1,2-a]pyridin-4-ium-2-olate] | 1.18 | efficacy (aphids killed) [2]: 100%
8 | N#CCCn1c([O-])c(C(=O)CCl)[n+]2ccccc12 [I-084, 3-(2-Chloroacetyl)-1-(2-cyanoethyl)imidazo[1,2-a]pyridin-4-ium-2-olate] | 0.8 | 
9 | CC1(OC(=O)C(=O)c2c([O-])n(CCC#N)c3cccc[n+]23)CC1 [I-089, 1-(2-Cyanoethyl)-3-[2-(1-methylcyclopropoxy)-2-oxo-acetyl]imidazo[1,2-a]pyridin-4-ium-2-olate] | 1.33 | efficacy (aphids killed) [4]: 90%
10 | CO/N=C/C(=O)c1c([O-])n(CCC#N)c2cccc[n+]12 [I-094, 1-(2-Cyanoethyl)-3-[(2E)-2-methoxyiminoacetyl]imidazo[1,2-a]pyridin-4-ium-2-olate] | 0.73 | efficacy (aphids killed) [2]: 100%
11 | Cc1ccc[n+]2c(C(=O)CCl)c([O-])n(CCC#N)c12 [I-095, 3-(2-Chloroacetyl)-1-(2-cyanoethyl)-8-methyl-imidazo[1,2-a]pyridin-4-ium-2-olate] | 0.8 | 
